Measurements as given in patent US11111243B2, “Azaindole compounds as histone methyltransferase inhibitors” (GLOBAL BLOOD THERAPEUTICS, INC., priority 2017, dated 2021).
Structures can show the parent of a compound that is named as a salt.

Biological target: T1, G9a (Homo sapiens, UniProt Q96KQ7)
T1 sequence (Q96KQ7 1-1210): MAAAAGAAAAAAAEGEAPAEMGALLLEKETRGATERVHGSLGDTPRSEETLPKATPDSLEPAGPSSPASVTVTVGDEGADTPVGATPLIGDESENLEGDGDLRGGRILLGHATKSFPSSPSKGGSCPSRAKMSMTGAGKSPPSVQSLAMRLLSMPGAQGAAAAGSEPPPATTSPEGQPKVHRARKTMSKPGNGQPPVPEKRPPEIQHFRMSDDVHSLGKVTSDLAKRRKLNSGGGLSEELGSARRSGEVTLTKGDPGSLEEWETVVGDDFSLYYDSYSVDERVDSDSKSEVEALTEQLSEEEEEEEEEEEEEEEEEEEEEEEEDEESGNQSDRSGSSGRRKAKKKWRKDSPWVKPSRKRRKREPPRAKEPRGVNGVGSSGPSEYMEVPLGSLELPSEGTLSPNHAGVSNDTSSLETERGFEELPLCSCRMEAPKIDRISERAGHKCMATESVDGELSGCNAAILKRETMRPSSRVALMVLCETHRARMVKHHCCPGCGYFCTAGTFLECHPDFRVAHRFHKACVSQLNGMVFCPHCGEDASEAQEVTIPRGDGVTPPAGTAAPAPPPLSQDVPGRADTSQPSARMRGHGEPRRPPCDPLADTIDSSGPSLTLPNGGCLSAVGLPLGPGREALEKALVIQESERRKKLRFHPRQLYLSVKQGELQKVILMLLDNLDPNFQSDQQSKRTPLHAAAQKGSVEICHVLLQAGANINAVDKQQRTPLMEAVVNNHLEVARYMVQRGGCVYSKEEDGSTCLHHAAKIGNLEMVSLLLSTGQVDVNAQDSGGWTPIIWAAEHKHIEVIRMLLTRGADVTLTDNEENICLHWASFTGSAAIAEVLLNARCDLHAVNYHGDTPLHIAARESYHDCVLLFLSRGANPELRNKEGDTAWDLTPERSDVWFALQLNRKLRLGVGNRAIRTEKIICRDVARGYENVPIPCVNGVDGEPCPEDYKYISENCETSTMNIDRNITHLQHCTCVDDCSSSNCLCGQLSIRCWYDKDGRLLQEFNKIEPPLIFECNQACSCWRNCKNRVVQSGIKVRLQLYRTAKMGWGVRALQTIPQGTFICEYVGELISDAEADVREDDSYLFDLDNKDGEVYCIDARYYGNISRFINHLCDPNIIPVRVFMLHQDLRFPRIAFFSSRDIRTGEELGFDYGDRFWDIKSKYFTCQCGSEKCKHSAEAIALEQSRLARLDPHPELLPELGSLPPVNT
Assay: G9a AlphaLISA enzymatic activity assay
Assay type: biochemical
Conditions: 0.15 nM G9a, 10 uM S-adenosyl-methionine, 100 nM biotinylated histone 3 peptide (1-21), 1 h room temperature
Excerpt: The G9a AlphaLISA assay was used to detect the methyl modifications of a biotinylated histone H3 peptide by the compounds. These modifications are done by the histone methyl transferase activity of the G9a enzyme. The assay consists of reading a chemiluminescent signal at 615 nm; this signal is generated by a laser excitation at 680 nm that transfers a reactive singlet oxygen between the donor beads and acceptor beads. Donor beads are streptavidin conjugated and bind to the biotin on the peptide. Acceptor beads are conjugated with an antibody that recognizes the specific G9a methyl mark on the peptide. If there is a methyl mark on the peptide, the acceptor beads will bind to the peptide. Upon binding, the acceptor beads will be in close proximity (<200 nm) of the donor beads and when the donor beads are excited, the transfer of the oxygen can occur and a strong signal will be generated. If there is no methyl mark, the interaction between beads will not occur and signal will be at background levels.
For the assay, the following buffer was used to set up reactions: 50 mM Tris-HCl pH9, 50 mM NaCl, 0.01% Tween-20 and 1 mM DTT (added fresh prior to starting the reactions). The assay is set up by adding a final concentration of 0.15 nM G9a, 10 uM S-adenosyl-methionine and, 100 nM biotinylated histone 3 peptide (1-21). The reaction is incubated at room temperature for 1 h, and subsequently quenched by the addition of the acceptor beads (anti-H3k9me2 AlphaLISA acceptor beads, PerkinElmer #AL117) at a final concentration of 20 ug/mL. The acceptor beads are incubated for 1 h. After 1 h, the donor beads are added at a final concentration of 20 ug/mL (Alpha Streptavidin donor beads, PerkinElmer #6760002). Donor beads are incubated for 0.5 h. Both donor and acceptor beads are resuspended in AlphaLISA 5× Epigenetics Buffer 1 Kit (PerkinElmer #AL008) prior to addition to the reaction. All manipulations and incubations with the donor and acceptor beads are done in subdued light. Signal is detected in an EnVision plate reader in Alpha mode (See ACS Med Chem Lett. 2014 Jan. 2; 5(2):205-9)
Percent inhibition was calculated for each compound dilution and the concentration that produced 50% inhibition was calculated. This value is presented as the IC50.

| IC50 [µM] | Compound |
| --- | --- |
| 0.061 | COc1cc2c(cc1OCCCN1CCCC1)[nH]c1ccnc(N3CCC(O)CC3)c12 [Compound 16, 1-{8-methoxy-7-[3-(pyrrolidin-1-yl)propoxy]-5H-pyrido[4,3-b]indol-1-yl}piperidin-4-ol] |
| 0.062 | COc1cc2c(cc1OCCOCCN(C)C)[nH]c1ccnc(C3CC3)c12 [Compound 53, {2-[2-({1-cyclopropyl-8-methoxy-5H-pyrido[4,3-b]indol-7-yl}oxy)ethoxy]ethyl}dimethylamine hydrochloride] |
| 0.12 | COc1cc2c(cc1OCCCN1CCCC1)[nH]c1cc(C3CC3)ncc12 [Compound 101, 1-[3-({3-cyclopropyl-8-methoxy-5H-pyrido[4,3-b]indol-7-yl}oxy)propyl]pyrrolidine hydrochloride] |
| 0.03 | COc1cc2c(cc1OCCCN(C)C)[nH]c1ccnc(C3CCC3)c12 [Compound 69, [3-({1-cyclobutyl-8-methoxy-5H-pyrido[4,3-b]indol-7-yl}oxy)propyl]dimethylamine hydrochloride] |
| 0.0032 | COc1cc2c(cc1OCCCN1CCCC1)[nH]c1ccncc12 [Compound 6, 1-[3-({8-methoxy-5H-pyrido[4,3-b]indol-7-yl}oxy)propyl]pyrrolidine] |
| 0.012 | COc1cc2c(cc1OCCCN1CCCC1)[nH]c1ccnc(N3CC(O)C3)c12 [Compound 18, 1-{8-methoxy-7-[3-(pyrrolidin-1-yl)propoxy]-5H-pyrido[4,3-b]indol-1-yl}azelidin-3-ol] |
| 0.053 | COc1cc2c(cc1OCCCN1CC[C@@H](F)C1)[nH]c1ccnc(C3CC3)c12 [Compound 62, (3R)-1-[3-({1-cyclopropyl-8-methoxy-5H-pyrido[4,3-b]indol-7-yl}oxy)propyl]-3-fluoropyrrolidine hydrochloride] |
| 0.0067 | CCc1nccc2[nH]c3cc(OCCCN(C)C)c(OC)cc3c12 [Compound 91, [3-({1-ethyl-8-methoxy-5H-pyrido[4,3-b]indol-7-yl}oxy)propyl]dimethylamine hydrochloride] |
| 0.017 | COc1cc2c(cc1OCCCN1CCCC1)[nH]c1ccnc(-c3cnc[nH]3)c12 [Compound 84, 1-(1H-imidazol-5-yl)-8-methoxy-7-(3-(pyrrolidin-1-yl)propoxy)-5H-pyrido[4,3-b]indole trifluoroacetate] |
| 0.045 | COc1cc2c(cc1OCCCN(C)C)[nH]c1ccnc(CCC(C)(C)O)c12 [Compound 49, 4-{7-[3-(dimethylamino)propoxy]-8-methoxy-5H-pyrido[4,3-b]indol-1-yl}-2-methylbutan-2-ol hydrochloride] |
| 0.17 | COc1cc2c(cc1OCCCN1CCCC1)[nH]c1cncnc12 [Compound 44, 1-[3-({8-methoxy-5H-pyrimido[5,4-b]indol-7-yl}oxy)propyl]pyrrolidine] |
| 0.007 | CCOCCNc1nccc2[nH]c3cc(OCCCN4CCCC4)c(OC)cc3c12 [Compound 20, N-(2-ethoxyethyl)-8-methoxy-7-[3-(pyrrolidin-1-yl)propoxy]-5H-pyrido[4,3-b]indol-1-amine] |
| 0.14 | COc1cc2c(cc1OCCCN1CCCC1)[nH]c1ccnc(-c3ccccn3)c12 [Compound 25, 8-methoxy-1-(pyridin-2-yl)-7-(3-(pyrrolidin-1-yl)propoxy)-5H-pyrido[4,3-b]indole] |
| 0.012 | COc1cc2c(cc1OCCCN1CCCC1)[nH]c1c(C)cnc(N3CCCC3)c12 [Compound 89, 1-{8-methoxy-4-methyl-7-[3-(pyrrolidin-1-yl)propoxy]-5H-pyrido[4,3-b]indol-1-yl}pyrrolidine hydrochloride] |
| 0.001 to 0.003 | COc1cc2c(cc1OCCCN1CCCC1)[nH]c1ccnc(C3CC3)c12 [Compound 12, 1-[3-({1-cyclopropyl-8-methoxy-5H-pyrido[4,3-b]indol-7-yl}oxy)propyl]pyrrolidine] |
| 0.022 | COc1cc2c(cc1OCCCN1CCCC1)[nH]c1ccnc(-c3cn[nH]c3)c12 [Compound 81, 4-[8-methoxy-7-[3-(pyrrolidin-1-yl)propoxy]-5H-pyrido[4,3-b]indol-1-yl]-1H-pyrazole hydrochloride] |
| 0.37 | COc1cc2c(cc1OCCCN1CCCC1)[nH]c1ccnc(N3CCOCC3)c12 [Compound 17, 4-{8-methoxy-7-[3-(pyrrolidin-1-yl)propoxy]-5H-pyrido[4,3-b]indol-1-yl}morpholine] |
| 0.093 | COc1cc2c(cc1OCCCN1CCCC1)[nH]c1ccnc(-c3cccnc3)c12 [Compound 24, 8-methoxy-1-(pyridin-3-yl)-7-(3-(pyrrolidin-1-yl)propoxy)-5H-pyrido[4,3-b]indole] |
| 2.5 | COc1cc2c(cc1OCCCN1CCCC1)[nH]c1ccnc(-n3cccn3)c12 [Compound 77, 1-[8-methoxy-7-[3-(pyrrolidin-1-yl)propoxy]-5H-pyrido[4,3-b]indol-1-yl]-1H-pyrazole trifluoroacetate] |
| 0.96 | COc1cc2c(cc1OCCCN1CCCC1)[nH]c1ccnc(OC3CCOCC3)c12 [Compound 73, 1-(3-{[8-methoxy-1-(oxan-4-yloxy)-5H-pyrido[4,3-b]indol-7-yl]oxy}propyl)pyrrolidine trifluoroacetate] |
| 0.0053 | COc1cc2c(cc1OCCCN1CCCC1)[nH]c1cc(N)ncc12 [Compound 8, 8-methoxy-7-[3-(pyrrolidin-1-yl)propoxy]-5H-pyrido[4,3-b]indol-3-amine] |
| 0.0045 | COc1cc2c(cc1OCCCN1CCCC1)[nH]c1cc(N)nc(C)c12 [Compound 10, 8-methoxy-1-methyl-7-[3-(pyrrolidin-1-yl)propoxy]-5H-pyrido[4,3-b]indol-3-amine] |
| 0.0045 | COc1cc2c(cc1OCCCN1CCCC1)[nH]c1ccnc(CO)c12 [Compound 82, 8-methoxy-7-[3-(pyrrolidin-1-yl)propoxy]-5H-pyrido[4,3-b]indol-1-yl]methanol trifluoroacetate] |
| 0.015 | COc1cc2c(cc1OCCCN(C)C)[nH]c1ccnc(C3CCCC3)c12 [Compound 56, [3-({1-cyclopentyl-8-methoxy-5H-pyrido[4,3-b]indol-7-yl}oxy)propyl]dimethylamine hydrochloride] |
| 0.28 | COc1cc2c(cc1OCCCN1CCCC1)[nH]c1ncccc12 [Compound 7, 1-[3-({6-methoxy-9H-pyrido[2,3-b]indol-7-yl}oxy)propyl]pyrrolidine] |
| 0.086 | COCCCc1nccc2[nH]c3cc(OCCCN(C)C)c(OC)cc3c12 [Compound 58, (3-{[8-methoxy-1-(3-methoxypropyl)-5H-pyrido[4,3-b]indol-7-yl]oxy}propyl)dimethylamine hydrochloride] |
| 0.56 | COc1cc2c(cc1OCCCN(C)C)[nH]c1ccnc(SC)c12 [Compound 95, (3-{[8-methoxy-1-(methylsulfanyl)-5H-pyrido[4,3-b]indol-7-yl]oxy}propyl)dimethylamine hydrochloride] |
